Test results: publication doi:10.1101/2024.08.19.608619, “Discovery of potent SARS-CoV-2 nsp3 macrodomain inhibitors uncovers lack of translation to cellular antiviral response” (bioRxiv, 2024)
Values joined by “and” are separate entries in the source; they are usually repeats but may differ in a detail not shown here. Equal entries are not always repeated. Where two headings read alike, the source gives them in different places.

Legend:
[1] = system: Ca2+ channel (L, dihydropyridine site); assay: In vitro CEREP profiling, Ca2+ channel (L, dihydropyridine site) (antagonist radioligand); type: binding; settings: test compound concentration 10 uM
From the text: (§1) Supplement media-1.zip/Safety_Panel_Profile.csv, table | column: perc_inhibition

[2] = In vitro human hepatocyte stability; type: in vitro ADME
From the text: (§2) Supplement media-1.zip/Hepatocyte_Stability.csv, table | column: clint; t_half

eEF-2K(h) = biological target: T1, eEF-2K(h) (Homo sapiens, UniProt O00418); assay: biochemical; set-up: In vitro kinase panel profiling, per cent remaining kinase activity at 10 uM; settings: atp_concentration=15, read-out: % of control remaining
T1 construct: gene EEF2K
T1 sequence (O00418 1-725): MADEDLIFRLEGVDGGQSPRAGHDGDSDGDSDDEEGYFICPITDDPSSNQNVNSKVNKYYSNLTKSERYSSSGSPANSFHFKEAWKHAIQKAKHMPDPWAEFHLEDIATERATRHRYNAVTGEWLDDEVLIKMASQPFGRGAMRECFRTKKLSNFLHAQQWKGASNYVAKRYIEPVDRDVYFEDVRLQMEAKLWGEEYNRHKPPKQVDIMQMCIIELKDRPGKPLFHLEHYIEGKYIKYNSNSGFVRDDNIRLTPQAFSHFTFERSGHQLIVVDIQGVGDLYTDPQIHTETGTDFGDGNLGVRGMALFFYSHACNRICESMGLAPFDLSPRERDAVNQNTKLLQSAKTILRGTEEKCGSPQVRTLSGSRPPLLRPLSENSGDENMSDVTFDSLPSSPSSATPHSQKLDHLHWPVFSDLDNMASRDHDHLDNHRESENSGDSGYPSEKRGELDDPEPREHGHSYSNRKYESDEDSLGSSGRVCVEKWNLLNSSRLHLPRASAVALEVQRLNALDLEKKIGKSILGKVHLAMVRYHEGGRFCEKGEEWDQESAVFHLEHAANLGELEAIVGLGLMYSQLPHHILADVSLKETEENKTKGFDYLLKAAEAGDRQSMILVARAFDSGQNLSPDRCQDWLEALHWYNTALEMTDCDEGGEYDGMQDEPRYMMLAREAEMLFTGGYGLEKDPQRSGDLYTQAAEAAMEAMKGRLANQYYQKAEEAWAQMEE
From the text: (§3) We derisk potential for off-target activity by profiling the compound in a CEREP panel, a standard secondary pharmacology assessment, as well as a kinase panel to derisk a potential hinge-binding motif in our leads, and a PARP panel to derisk activity against human […]. Reassuringly, the compounds are selective, with the only off-targets being moderate human CHRM2 and KOR receptors activity associated with ASAP-0011198.

PKG1α(h) = biological target: T2, PKG1α(h) (Homo sapiens, UniProt Q13976); assay: biochemical; set-up: In vitro kinase panel profiling, per cent remaining kinase activity at 10 uM; settings: atp_concentration=90, read-out: % of control remaining
T2 construct: gene PRKG1; isoform alpha
T2 sequence (Q13976 1-671): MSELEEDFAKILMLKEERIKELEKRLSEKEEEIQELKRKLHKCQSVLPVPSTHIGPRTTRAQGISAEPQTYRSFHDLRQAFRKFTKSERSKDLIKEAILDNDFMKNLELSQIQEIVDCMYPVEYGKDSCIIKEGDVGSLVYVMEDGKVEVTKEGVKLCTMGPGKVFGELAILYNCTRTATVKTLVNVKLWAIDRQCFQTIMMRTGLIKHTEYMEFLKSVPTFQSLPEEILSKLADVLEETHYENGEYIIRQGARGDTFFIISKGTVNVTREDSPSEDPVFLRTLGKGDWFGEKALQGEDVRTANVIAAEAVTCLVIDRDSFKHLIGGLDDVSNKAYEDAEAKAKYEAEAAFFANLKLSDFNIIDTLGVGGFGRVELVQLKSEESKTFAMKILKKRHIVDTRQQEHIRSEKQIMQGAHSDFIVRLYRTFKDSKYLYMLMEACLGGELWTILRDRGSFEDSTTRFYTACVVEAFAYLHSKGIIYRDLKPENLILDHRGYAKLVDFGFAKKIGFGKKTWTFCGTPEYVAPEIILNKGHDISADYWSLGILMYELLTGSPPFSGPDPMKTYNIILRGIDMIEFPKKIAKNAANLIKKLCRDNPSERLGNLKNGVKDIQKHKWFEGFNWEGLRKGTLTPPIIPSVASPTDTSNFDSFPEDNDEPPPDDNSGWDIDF
From the text: as §3

[3] = In vitro dog hepatocyte stability; type: in vitro ADME
From the text: as §2

PDE3A (h) = biological target: T3, PDE3A (h) (Homo sapiens, UniProt Q14432); assay: In vitro CEREP profiling, PDE3A (h); type: biochemical; settings: test compound concentration 10 uM; Enzyme and Cell-based assays
T3 construct: purchased Eurofins Cerep (SafetyScreen44), recognised from the panel format
T3 sequence (Q14432 whole entry): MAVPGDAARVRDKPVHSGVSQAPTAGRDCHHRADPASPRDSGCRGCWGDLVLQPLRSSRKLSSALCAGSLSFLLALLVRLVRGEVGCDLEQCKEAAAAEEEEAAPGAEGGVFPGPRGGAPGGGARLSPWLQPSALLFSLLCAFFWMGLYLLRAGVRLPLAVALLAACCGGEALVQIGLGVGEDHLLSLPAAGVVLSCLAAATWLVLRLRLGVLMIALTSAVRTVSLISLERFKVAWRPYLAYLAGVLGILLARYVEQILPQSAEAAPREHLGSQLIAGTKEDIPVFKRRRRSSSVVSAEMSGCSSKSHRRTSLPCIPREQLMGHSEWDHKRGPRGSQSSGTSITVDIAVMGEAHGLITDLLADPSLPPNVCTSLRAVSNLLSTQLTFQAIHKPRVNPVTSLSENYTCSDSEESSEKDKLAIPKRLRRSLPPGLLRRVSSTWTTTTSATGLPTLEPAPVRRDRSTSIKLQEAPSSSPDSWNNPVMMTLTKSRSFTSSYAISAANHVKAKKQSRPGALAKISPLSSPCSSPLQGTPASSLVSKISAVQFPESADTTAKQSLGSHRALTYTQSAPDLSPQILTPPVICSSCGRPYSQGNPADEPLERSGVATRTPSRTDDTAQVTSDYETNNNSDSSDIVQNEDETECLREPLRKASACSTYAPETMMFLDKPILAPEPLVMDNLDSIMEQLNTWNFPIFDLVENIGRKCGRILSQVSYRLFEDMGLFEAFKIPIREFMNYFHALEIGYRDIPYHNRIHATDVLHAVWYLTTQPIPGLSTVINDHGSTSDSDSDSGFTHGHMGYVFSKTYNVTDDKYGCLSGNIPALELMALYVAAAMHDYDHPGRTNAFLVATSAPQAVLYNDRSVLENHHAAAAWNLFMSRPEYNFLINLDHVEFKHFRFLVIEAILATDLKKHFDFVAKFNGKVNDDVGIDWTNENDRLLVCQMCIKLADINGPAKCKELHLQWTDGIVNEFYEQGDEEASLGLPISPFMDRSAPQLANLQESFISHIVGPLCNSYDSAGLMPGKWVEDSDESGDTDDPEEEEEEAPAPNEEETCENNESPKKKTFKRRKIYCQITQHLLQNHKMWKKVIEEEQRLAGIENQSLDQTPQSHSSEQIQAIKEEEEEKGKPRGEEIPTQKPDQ
From the text: as §1

in vitro = settings: human, hela-ace2 cells, 50.0
COX2(h) = biological target: T4, COX2(h) (Homo sapiens, UniProt P35354); assay: In vitro CEREP profiling, COX2(h); type: biochemical; settings: test compound concentration 10 uM; Enzyme and Cell-based assays
T4 construct: purchased Eurofins Cerep (SafetyScreen44), recognised from the panel format
T4 sequence (P35354 18-604): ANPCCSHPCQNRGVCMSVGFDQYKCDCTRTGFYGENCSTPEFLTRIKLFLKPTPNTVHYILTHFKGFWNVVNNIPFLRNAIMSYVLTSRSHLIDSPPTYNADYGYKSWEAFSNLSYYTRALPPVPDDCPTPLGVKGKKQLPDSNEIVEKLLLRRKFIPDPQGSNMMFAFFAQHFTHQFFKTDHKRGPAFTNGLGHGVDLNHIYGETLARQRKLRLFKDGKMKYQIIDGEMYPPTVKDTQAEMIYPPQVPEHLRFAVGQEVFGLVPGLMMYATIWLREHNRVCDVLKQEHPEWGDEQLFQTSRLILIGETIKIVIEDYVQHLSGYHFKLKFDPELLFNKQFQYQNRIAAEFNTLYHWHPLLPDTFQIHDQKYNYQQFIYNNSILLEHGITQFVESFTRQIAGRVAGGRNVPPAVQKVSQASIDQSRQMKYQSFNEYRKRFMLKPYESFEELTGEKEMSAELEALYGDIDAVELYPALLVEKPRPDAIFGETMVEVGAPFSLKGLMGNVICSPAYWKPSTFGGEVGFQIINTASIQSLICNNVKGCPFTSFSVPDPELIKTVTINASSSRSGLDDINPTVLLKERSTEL
From the text: as §1

[4] = Permeability Papp (AB) MDR1/MDCKII; settings: for papp_b_to_a_mean / perc_recovery_a_to_b_mean / perc_recovery_b_to_a_mean / efflux_ratio / papp_a_to_b_mean: In vitro MDR1-MDCKII permeability; for papp_b_to_a_mean: B to A; for perc_recovery_a_to_b_mean / perc_recovery_a_to_b_inhibitor_mean: recovery A to B; for perc_recovery_b_to_a_mean / perc_recovery_b_to_a_inhibitor_mean: recovery B to A; for perc_recovery_a_to_b_inhibitor_mean / perc_recovery_b_to_a_inhibitor_mean: MDR1-MDCKII; for papp_a_to_b_mean: A to B

## CC(C)[C@H](Nc1ncnc2[nH]c(-c3cnn(C)c3C#N)cc12)c1ccc2c(n1)OCCO2 [ASAP-0010715]
[1]
  perc_inhibition (% inhibition of the binding of a ligand specific for each target): 9%
[2]
  clint: 28.7 uL/min/1E6 cells
  t_half: 24.2 min
eEF-2K(h); batch_name=ASAP-0010715-002
  remaining activity at 10 µM: 108%
PKG1α(h); batch_name=ASAP-0010715-002
  remaining activity at 10 µM: 130%
[3]
  clint: 3.01 uL/min/1E6 cells
  t_half: 231.0 min
PDE3A (h)
  perc_inhibition: % inhibition of control enzyme activity, PDE3A (h): 37%
In vitro
  CC50 at 24 h: > 20 µM
COX2(h)
  perc_inhibition: % inhibition of control enzyme activity, COX2(h): -2%
[4]; no inhibitor
  papp_b_to_a_mean: 5.98 ×10⁻⁶ cm/s
  perc_recovery_a_to_b_mean: 70.1% and 79.9%
  perc_recovery_b_to_a_mean: 76.7%
[4]; with inhibitor Cyclosporin A
  perc_recovery_a_to_b_inhibitor_mean: 75.0%
  perc_recovery_b_to_a_inhibitor_mean: 76.7%

## COc1ccc([C@H](Cc2nnn[nH]2)NC(=O)c2ncnc3[nH]ccc23)cc1 [ASAP-0015381]
[1]
  perc_inhibition (% inhibition of the binding of a ligand specific for each target): -22%
[2]
  clint: < 3.0 uL/min/1E6 cells
  t_half: > 231.0 min
eEF-2K(h); batch_name=ASAP-0015381-001
  remaining activity at 10 µM: 96%
PKG1α(h); batch_name=ASAP-0015381-001
  remaining activity at 10 µM: 121%
[3]
  clint: < 3.0 uL/min/1E6 cells
  t_half: > 231.0 min
PDE3A (h)
  perc_inhibition: % inhibition of control enzyme activity, PDE3A (h): 62%
In vitro
  CC50 at 24 h: > 20 µM
COX2(h)
  perc_inhibition: % inhibition of control enzyme activity, COX2(h): -1%
[4]; no inhibitor
  papp_b_to_a_mean: 0.021 ×10⁻⁶ cm/s
  efflux_ratio: 0.67
  perc_recovery_a_to_b_mean: 87.0% and 68.4%
  perc_recovery_b_to_a_mean: 84.4%
[4]; with inhibitor Cyclosporin A
  perc_recovery_a_to_b_inhibitor_mean: 83.1%
  perc_recovery_b_to_a_inhibitor_mean: 85.5%

## CNCc1cc(-c2cc3c(N[C@@H](c4ccc5c(c4)S(=O)(=O)CCC5)C(C)C)ncnc3[nH]2)co1 [ASAP-0011176]
[1]
  perc_inhibition (% inhibition of the binding of a ligand specific for each target): -3%
[2]
  clint: 14.2 uL/min/1E6 cells
  t_half: 48.9 min
eEF-2K(h); batch_name=ASAP-0011176-002
  remaining activity at 10 µM: 82%
PKG1α(h); batch_name=ASAP-0011176-002
  remaining activity at 10 µM: 115%
[3]
  clint: 7.3 uL/min/1E6 cells
  t_half: 94.9 min
PDE3A (h)
  perc_inhibition: % inhibition of control enzyme activity, PDE3A (h): -5%
In vitro
  CC50 at 24 h: > 20 µM
COX2(h)
  perc_inhibition: % inhibition of control enzyme activity, COX2(h): 24%
[4]; mean
  papp_a_to_b_mean: 2.61 ×10⁻⁶ cm/s
  perc_recovery_a_to_b_mean: 78.9%
[4]; no inhibitor
  papp_a_to_b_mean: 0.0775 ×10⁻⁶ cm/s and 0.0947 ×10⁻⁶ cm/s
  papp_b_to_a_mean: 0.15 ×10⁻⁶ cm/s and 0.137 ×10⁻⁶ cm/s
  perc_recovery_a_to_b_mean: 64.8% and 63.4%
  perc_recovery_b_to_a_mean: 60.4% and 68.7%
[4]; with inhibitor Cyclosporin A
  perc_recovery_a_to_b_inhibitor_mean: 78.6%
  perc_recovery_b_to_a_inhibitor_mean: 83.0%
[4]; with inhibitor Verapamil
  perc_recovery_a_to_b_inhibitor_mean: 67.3%
  perc_recovery_b_to_a_inhibitor_mean: 62.0%

## Cn1ncc(-c2cc3c(N[C@@H](c4ccc5c(n4)OCCO5)C(C)(C)C)ncnc3[nH]2)c1C#N [ASAP-0011221]
[1]
  perc_inhibition (% inhibition of the binding of a ligand specific for each target): 21%
[2]
  clint: 171.0 uL/min/1E6 cells
  t_half: 4.04 min
eEF-2K(h); batch_name=ASAP-0011221-002
  remaining activity at 10 µM: 124%
PKG1α(h); batch_name=ASAP-0011221-002
  remaining activity at 10 µM: 127%
[3]
  clint: 3.81 uL/min/1E6 cells
  t_half: 182.0 min
PDE3A (h)
  perc_inhibition: % inhibition of control enzyme activity, PDE3A (h): 37%
In vitro
  CC50 at 24 h: > 20 µM
COX2(h)
  perc_inhibition: % inhibition of control enzyme activity, COX2(h): -9%
[4]; mean
  papp_a_to_b_mean: 14.0 ×10⁻⁶ cm/s
  perc_recovery_a_to_b_mean: 84.8%
[4]; no inhibitor
  papp_a_to_b_mean: 2.76 ×10⁻⁶ cm/s
  papp_b_to_a_mean: 5.51 ×10⁻⁶ cm/s
  perc_recovery_a_to_b_mean: 94.8%
  perc_recovery_b_to_a_mean: 101.0%
[4]; with inhibitor Cyclosporin A
  perc_recovery_a_to_b_inhibitor_mean: 61.6%
  perc_recovery_b_to_a_inhibitor_mean: 62.4%

## C[C@H](C(=O)O)[C@@H](NC(=O)c1ncnc2[nH]ccc12)c1ccc(Br)cc1 [ASAP-0014722]
[1]
  perc_inhibition (% inhibition of the binding of a ligand specific for each target): -12%
[2]
  clint: < 3.0 uL/min/1E6 cells
  t_half: > 231.0 min
eEF-2K(h); batch_name=ASAP-0014722-002
  remaining activity at 10 µM: 85%
PKG1α(h); batch_name=ASAP-0014722-002
  remaining activity at 10 µM: 118%
[3]
  clint: < 3.0 uL/min/1E6 cells
  t_half: > 231.0 min
PDE3A (h)
  perc_inhibition: % inhibition of control enzyme activity, PDE3A (h): 52%
In vitro
  CC50 at 24 h: > 20 µM
COX2(h)
  perc_inhibition: % inhibition of control enzyme activity, COX2(h): 7%
[4]; no inhibitor
  papp_b_to_a_mean: 0.274 ×10⁻⁶ cm/s
  efflux_ratio: 8.67
  perc_recovery_a_to_b_mean: 89.1% and 77.4%
  perc_recovery_b_to_a_mean: 87.2%
[4]; with inhibitor Cyclosporin A
  perc_recovery_a_to_b_inhibitor_mean: 80.9%
  perc_recovery_b_to_a_inhibitor_mean: 84.1%
